Tested on: patients with relapsed/refractory AML
Experiment: Clinical trial of BI 6727 in combination with LD-Ara-C in AML patients
Assay type: in vivo
Method: BI 6727 (350 mg) was administered as a one-hour intravenous infusion on Days 1+15 every 28 days in combination with fixed dose LD-Ara-C (low-dose cytarabine) (20 mg twice daily s.c. [subcutaneous]). The starting dose of BI 6727 was based on the MTD previously determined in solid tumor patients. Patients with no progression after the first cycle were allowed to continue treatment.

[1] = preliminary, 32 patients with relapsed/refractory AML, different BI 6727 doses in combination with LD-Ara-C

CC[C@@H]1C(=O)N(C)c2cnc(Nc3ccc(C(=O)N[C@H]4CC[C@H](N5CCN(CC6CC6)CC5)CC4)cc3OC)nc2N1C(C)C [BI 6727, N-[trans-4-[4-(cyclopropylmethyl)-1-piperazinyl]cyclohexyl]-4-[[(7R)-7-ethyl-5,6,7,8-tetrahydro-5-methyl-8-(1-methylethyl)-6-oxo-2-pteridinyl]amino]-3-methoxy-benzamide]
MTD (BI 6727 d1+15q28d in combination with LD-Ara-C): 350 mg | DLTs as rated per protocol (kind) (human, in vivo): pneumonia, mucositis, hypersensitivity/allergic reaction and myocardial infarction | Dose-limiting toxicities (DLTs), number of patients (human, in vivo): four | Clinical activity (in combination with LD-Ara-C, AML patients): showed first signs of clinical activity | Best response: incomplete blood count recovery (CRi) or complete remission (CR), number of patients [1]: seven | Best response: partial remission, number of patients [1]: 1 patients | Best response: temporarily stable blood values ("no change"), number of patients [1]: Six | Progression during or at the end of the first-treatment cycle, number of patients [1]: Eleven
